PMC4273223, “(2R,1'S,2'R)- and (2S,1'S,2'R)-3-[2-Mono(di,tri)fluoromethylcyclopropyl]alanines and their incorporation into hormaomycin analogues” (Beilstein Journal of Organic Chemistry, 2014)
≈ marks a conversion by molar mass, not a printed value. Structures can show the parent of a compound that is named as a salt. Starred links: 1 amine or outer side, 2 acyl side, 3 side chain; linkers in the order of their positions; H or OH if unused. Positions of bridges follow the written chain, without caps; N, C: chain ends. Non-standard residues stand in square brackets, D forms with d. Residues, ends and D or L forms follow the SMILES beside them. *: point of attachment. X1 = O=C([C@@H](C[C@@H]1C[C@H]1C(F)(F)F)N[*:1])[*:2]; X2 = C/C=C\[C@H]1C[C@@H](C(=O)[*:2])N([*:1])C1; Phe(3R-Me) = C[C@H](c1ccccc1)[C@H](N)C(=O)O; d(aThr) = C[C@@H](O)[C@@H](N)C(=O)O; Tfa = O=C(C(F)(F)F)*

Key:
[1] = test system: Plasmodium falciparum strain K1; experiment: microbe, parasite or virus in culture
Method: (§1) The syntheses of hormaomycin (1) itself and of its all-peptide aza-analogues 60 and 61 (Figure 6) as developed by Zlatopolskiy et al., were reproduced in order to provide large enough quantities for biological tests of their antimalarial activities.
(§2) In vitro antiprotozoal activity assays: The in vitro activities against the protozoan parasites L. donovani and P. falciparum as well as cytotoxicity assessments against L6 cells were determined as reported elsewhere.

[2] = test system: Leishmania donovani strain MHOM-ET-67/L82; experiment: microbe, parasite or virus in culture; conditions: for activity against L. donovani (in words): in vitro
Method: as §1, §2

coryneform bacteria = test system: coryneform bacteria; set-up: method as in doi:10.1002/hlca.19890720303, doi:10.1002/ange.19901020122; conditions: cited from earlier work
[3] = set-up: method as in PMID 12760691; conditions: cited from earlier work
L6 cells = experiment: cells
Method: as §2

| IC50 against Leishmania donovani strain MHOM-ET-67/L82 [2] | IC50 against Plasmodium falciparum strain K1 [1] | Structure (SMILES) | IC50 against L6 cells (L6 cells) | other results |
| --- | --- | --- | --- | --- |
| – | – | CCN(CC)CCCC(C)Nc1ccnc2cc(Cl)ccc12 (stereo not shown) [Chloroquine, reference compound] | – | IC50 ([1]; Plasmodium falciparum, K1, read-out: IC50 against Plasmodium falciparum strain K1): 0.089 µg/mL (≈ 0.278 µM) |
| – | – | C/C=C\[C@H]1C[C@H]2C(=O)O[C@H](C)[C@@H](NC(=O)[C@H](C[C@@H]3C[C@H]3[N+](=O)[O-])NC(=O)c3ccc(Cl)n3O)C(=O)N[C@@H]([C@H](C)c3ccccc3)C(=O)N[C@H](C[C@@H]3C[C@H]3[N+](=O)[O-])C(=O)N[C@@H]([C@H](C)c3ccccc3)C(=O)N[C@@H]([C@@H](C)CC)C(=O)N2C1 [Compound 1, hormaomycin] | – | activity against L. donovani (in words) [2]: showed an activity against L. donovani; antimalarial activity (in words) ([1]; in vitro): good and selective antimalarial activities; inhibitory effect on coryneform bacteria (in words) (coryneform bacteria): exceptionally selective inhibitory effect; antimalarial activity (in words) [3]: interesting antimalarial activity |
| 0.205 µg/mL (≈ 0.174 µM) | 0.183 µg/mL (≈ 0.156 µM) | C/C=C\[C@H]1C[C@H]2C(=O)O[C@H](C)[C@@H](NC(=O)[C@H](C[C@@H]3C[C@H]3C(F)(F)F)NC(=O)c3ccc(Cl)n3O)C(=O)N[C@@H]([C@H](C)c3ccccc3)C(=O)N[C@H](C[C@@H]3C[C@H]3C(F)(F)F)C(=O)N[C@@H]([C@H](C)c3ccccc3)C(=O)N[C@@H]([C@@H](C)CC)C(=O)N2C1 [Compound 8a] | 40 µg/mL (≈ 34 µM) | activity against L. donovani (in words) [2]: showed an activity against L. donovani; activity against L. donovani lower than that of hormaomycin (1) ([2]; relative to hormaomycin (1)): 37% |
| 2.13 µg/mL (≈ 2.13 µM) | 0.042 µg/mL (≈ 0.042 µM) | C/C=C\[C@H]1C[C@H]2C(=O)O[C@H](C)[C@@H](NC(=O)OCc3ccc(C)cc3)C(=O)N[C@@H]([C@H](C)c3ccccc3)C(=O)N[C@H](C[C@@H]3C[C@H]3C(F)(F)F)C(=O)N[C@@H]([C@H](C)c3ccccc3)C(=O)N[C@@H]([C@@H](C)CC)C(=O)N2C1 [Compound 52a] | >90 µg/mL | – |
| 1.73 µg/mL (≈ 1.93 µM) | 0.151 µg/mL (≈ 0.169 µM) | C/C=C\[C@H]1C[C@H]2C(=O)O[C@H](C)[C@@H](NC(C)=O)C(=O)N[C@@H]([C@H](C)c3ccccc3)C(=O)N[C@H](C[C@@H]3C[C@H]3C(F)(F)F)C(=O)N[C@@H]([C@H](C)c3ccccc3)C(=O)N[C@@H]([C@@H](C)CC)C(=O)N2C1 [Compound 58] (Ac-[d(aThr)][Phe(3R-Me)][X1][Phe(3R-Me)]I[X2]; ester 1-C) | >90 µg/mL | – |
| 2.37 µg/mL | 0.265 µg/mL | C/C=C\[C@H]1C[C@H]2C(=O)O[C@H](C)[C@@H](NC(=O)C(F)(F)F)C(=O)N[C@@H]([C@H](C)c3ccccc3)C(=O)N[C@H](C[C@@H]3C[C@H]3C(F)(F)F)C(=O)N[C@@H]([C@H](C)c3ccccc3)C(=O)N[C@@H]([C@@H](C)CC)C(=O)N2C1 [Compound 59] (Tfa-[d(aThr)][Phe(3R-Me)][X1][Phe(3R-Me)]I[X2]; ester 1-C) | >90 µg/mL | – |
| – | 0.061 µg/mL (≈ 0.0633 µM) | C/C=C\[C@H]1C[C@H]2C(=O)NC[C@@H](NC(=O)OCc3ccc(C)cc3)C(=O)N[C@@H]([C@H](C)c3ccccc3)C(=O)N[C@H](C[C@@H]3C[C@H]3[N+](=O)[O-])C(=O)N[C@@H]([C@H](C)c3ccccc3)C(=O)N[C@@H]([C@@H](C)CC)C(=O)N2C1 [Compound 61] | – | – |
| – | – | CCCCCCCCCCCCCCCCOP(=O)([O-])OCC[N+](C)(C)C [Miltefosine, reference compound] | – | IC50 ([2]; Leishmania donovani, read-out: IC50 against Leishmania donovani strain MHOM-ET-67/L82): 0.143 µg/mL (≈ 0.351 µM) |
| – | – | COc1cc([C@@H]2c3cc4c(cc3[C@H](O)[C@H]3COC(=O)[C@H]23)OCO4)cc(OC)c1OC [Podophyllotoxin, reference compound] | – | IC50 (L6 cells; Rattus norvegicus, L6, read-out: IC50 against L6 cells): 0.006 µg/mL (≈ 0.0145 µM) |
